Source: patent US20120232290A1, “REACTIVITY OF HYDROXYMETHYLGLUTARYL COENZYME A (HMG-COA) REDUCTASE INHIBITORS CONTAINING CONJUGATED DIENES WITH PHENOLIC ANTIOXIDANTS IN THE SOLID-STATE” (priority 2007, published 2012)
Like-named read-outs stand apart in the source and are kept apart here.

Legend:
[1] = Stability of isolated simvastatin hydroperoxide degradates on storage; type: physicochemical; conditions: stored under freezer conditions
[2] = type: physicochemical; conditions: for hydroxy and hydroperoxide products formed: reactions with antioxidants, determined by LC/MS; for change in concentration of statin / decrease in concentration of statin: solid-state, 50° C., 9 days
Protocol: Solvents used varied due to the solubility of the statin. […] The beaker was placed in a dark oven maintained at 50° C. overnight. The beaker was removed from the oven, allowed to cool, then 20 mL of solvent were added and the beaker swirled to redissolve the solid. The beaker was returned to the oven and heated an additional 24 h at 50° C. This dissolution and heating process was repeated daily for the duration of the specific experiment. […] Reversed-phase HPLC analyses were performed using an Agilent 1100 HPLC with an Agilent diode array detector acquiring data in the range of 205-400 nm. This LC/MS-compatible method utilized a Discovery RP Amide C16 250 mm×4.6 mm, 5 μm column (Supelco Inc, Bellefonte Pa.). Mobile phase A was aqueous 0.1% (v/v) formic acid and mobile phase B was acetonitrile containing 0.1% (v/v) formic acid. Mobile phase flow rate was 1 mL/min and the column was maintained at 30° C. The elution sequence was isocratic 60% A:40% B for 0.5 min; a gradient of 60% A:40% B to 50% A:50% B over 1.5 min then hold for 28 min; 50% A:50% B to 20% A:80% B over 1.0 min then hold for 3 min; 20% A:80% B to 100% B over 1.0 min then hold for 4 min. LC/MS analyses were performed using a Waters Acquity UPLC with PDA and a Micro Quattro MS with infusion pump with the LC method described above.

[3] = aqueous solution, radical initiator; cited from earlier work

CCC(C)(C)C(=O)OC1C[C@](C)(OO)C=C2C=CC(C)C(CCC3CC(O)CC(=O)O3)C21 (stereo partly drawn) [3(S)-hydroperoxysimvastatin]
decomposition of isolate on storage [1]: slowly decomposed to numerous products over a few days

CC[C@H](C)C(=O)O[C@H]1CCC=C2C=C[C@H](C)[C@H](CC[C@@H]3C[C@@H](O)CC(=O)O3)[C@H]21 [mevastatin]
degradation of statin [2]: Minimal degradation | hydroxy and hydroperoxide products formed [2]: minimal quantities of hydroxy and hydroperoxide products | change in concentration of statin ([2]; incubated alone): no decrease | change in concentration of statin ([2]; with BHA): no decrease | change in concentration of statin ([2]; with propyl gallate): no decrease | change in concentration of statin ([2]; with α-tocopherol): no decrease

CCC(C)(C)C(=O)OC1C[C@@](C)(OO)C=C2C=CC(C)C(CCC3CC(O)CC(=O)O3)C21 (stereo partly drawn) [3(R)-hydroperoxysimvastatin]
decomposition of isolate on storage [1]: slowly decomposed to numerous products over a few days

CC[C@H](C)C(=O)O[C@H]1C[C@H](O)C=C2C=C[C@H](C)[C@H](CC[C@@H](O)C[C@@H](O)CC(=O)O)[C@H]21 [pravastatin]
degradation of statin [2]: Minimal degradation

CC[C@H](C)C(=O)O[C@H]1C[C@@H](C)C=C2C=C[C@H](C)[C@H](CC[C@@H]3C[C@@H](O)CC(=O)O3)[C@H]21 [lovastatin]
degradation of statin [2]: Minimal degradation | hydroxy and hydroperoxide products formed [2]: minimal quantities of hydroxy and hydroperoxide products | decrease in concentration of statin ([2]; incubated alone): about 12% | change in concentration of statin ([2]; with BHA): remained essentially unchanged | decrease in concentration of statin ([2]; with propyl gallate): about 12% | change in concentration of statin ([2]; with α-tocopherol): remained essentially unchanged | rates of oxidation (lovastatin versus simvastatin) [3]: nearly identical rates of oxidation
